# In patent US20020061866A1, “Pharmaceutical compositions comprising in combination a bisphosphonate and a matrix metalloproteinase inhibitor” (priority 1999, published 2002):
# Where “and” joins values, the source holds several entries; their conditions need not be identical. Identical values can stand only once.
# Columns and labels:
# [1] = test system: MMP-2 production and secretion by PC-3 ML cells; settings: in vitro and in vivo; cited from earlier work
# [2] = test system: human PC-3 ML prostatic cancer subclones; settings: pretreatment of SCID mice; cited from earlier work
# [3] = test system: human estrogen-independent breast cancer MDA-231 cells; settings: nontransfected MDA-231 cells, daily subcutaneous administration; cited from earlier work
# [4] = test system: human myeloma cell lines (HMCL) LP-1, OPM-2 and JJN-3; assay: Proliferation of HMCL, [3H]-thymidine incorporation (three cell lines together); type: cell-based; settings: for inhibition at 500 µM: Homo sapiens, 72 h, all the HMCL
# Experimental: (§1) The human myeloma cell lines (HMCL) LP-1 and OPM-2 were obtained from DSM (Braunschweig, Germany). JJN-3 was kindly provided by B Van Campo (VUB, Belgium). Cells are maintained in RPMI 1640 culture medium supplemented with 10% fetal calf serum (FCS), 2mM glutamine, antibiotics (100 IU/ml penicillin and 100 μg/ml streptomycin) and 10 μM 2-β-mercaptoethanol.
# (§2) The three HMCL are studied Le., LP-1, OPM-2 and JJN-3. Proliferation assays are performed in 96-well round-bottom microtiter plates at a cell density of 10^5 cells/mL. Cells are incubated for 3 days at 37° C. in a 5% CO2 humidified atmosphere with or without recombinant human IL-6 (rhIL-6) at 5 ng/ml, in the presence (or not) of the bisphosphonate of interest. Then, […] of […] is added during the last 18 hours. [^3H]-thymidine, incorporation is quantified by liquid scintillation spectroscopy.
# JJN-3 = assay: Proliferation of HMCL, [3H]-thymidine incorporation; type: cell-based, human; settings: for concentration at which proliferation returns to the level of the control: JJN-3
# Experimental: as §1, §2
# LP-1 = assay: as above; type: cell-based, human; settings: for IC50: Homo sapiens, LP-1, 72 h, 3 days
# Experimental: as §1, §2
# OPM-2 = assay: as above; type: cell-based, human; settings: for IC50: Homo sapiens, OPM-2, 72 h, 3 days
# Experimental: as §1, §2
# BMSC = assay: Survival experiments, BMSC apoptosis by APO 2.7 flow cytometry; type: cell-based, human; settings: 10^−4 mol/L, 3-day incubation
# Experimental: (§3) BMSC are obtained from 7 patients with MM after long term culture of bone marrow samples. Bone marrow mononuclear cells are isolated by Ficoll-Hypaque density centrifugation. The cells are plated in DMEM supplemented with 10% FCS and allowed to attach for 3 days, after which the medium is renewed. After 2 to 3 weeks of culture, a confluent adherent cell monolayer is obtained and then, after two passages using trypsin/ETA solution, BMSC are recovered for study. Cells are maintained in DMEM supplemented with 10% FCS, 2 mmol/L glutamine, 100 μg/mL streptomycin, 100 U/mL penicillin, and 5. 10^−5 mol/L 2-β-mercaptoethanol.
# Adherent BMSC (3×10^5 cells) are plated in 25 cm^2 flasks and are incubated with either pamidronate (APD) or zoledronate, at the following concentrations: 10^−4 and 10^−5 mol/L. A control without bisphosphonate is performed After a 3-day incubation period, cells are washed with PBS and removed from the flasks using trypsin-EDTA for 20 seconds. The percentage of apoptotic cells is determined by flow cytometry using APO 2.7 mAb (Immunotech, Marseilles, France) (ibid.).
# [5] = test system: constitutive production of IL-6 by BMSC; assay: Determination of IL-6 concentrations by ELISA; type: cell-based, human; settings: 48 h
# Experimental: as §3
# Adherent BMSC (10^4 cells) plated in 96-well plates are preincubated for 24 hours with either pamidronate or zoledronate. The medium is replaced by a fresh one containing 2% FCS and different concentrations of each bisphosphonate: 10^−6, 10^−7, 10^−8, 10^−9, 10^−10, 10^−11 Mol/L of zoledronate and 10^−6, 10^−7, 10^−8, 10^−9, 10^−10 Mol/L of pamidronate respectively. After a 48-hour incubation period, the supernatants are collected and stored at −20° C. until analysis. L6 A production is measured by ELISA (ELISA test concentrations ranging from 10 to 500 pg/mL) (Innotest, Besancon, France). No interference between the bisphosphonates and ELISA is observed in this study (data not shown). Six of the seven BMSC are tested for production of IL-6 in the presence of bisphosphonates.
# [6] = test system: IL-1β-induced MMP-1 secretion by BMSC; assay: Determination of interstitial collagenase (MMP-1) levels by ELISA; type: cell-based, human; settings: IL-1β (10 ng/ml) stimulated, 48 h, mean ± SD
# Experimental: as §3
# Adherent BMSC (15×10^3 cells) plated in 96-well plates are preincubated for 24 hours with either pamidronate or zoledronate. Then the cells are stimulated by IL-1β (10 ng/ml) in the presence of different concentrations (10^−6, 10^−7, 10^−8 and 10^−9 Mol/L) of each bisphosphonate without FCS. After a 48-hour incubation period, supernatants are collected and stored at −20° C. until analysis. MMP-1 levels are measured by ELISA (Amersham, Les Ulis, France). This assay measures MMP-1 irrespective of its mode of presentation (i.e. free or bound, active or not).
# MMP-2 secretion by BMSC = assay: Determination of gelatinase A (MMP-2) levels by gelatin substrate gel zymography; type: cell-based, human; settings: 48 h
# Experimental: as §3
# Adherent BMSC (10^4 cells) plated in 96-well plates are preincubated for 24 hours with either pamidronate or zoledronate. Then the medium is replaced by a fresh one without FCS but in the presence of different concentrations (10^−6, 10^−7, 10^−8, 10^−9 Mol/L) of each bisphosphonate. After a 48-hour incubation period, the supernatants are collected and stored at −20° C. until analysis. MMP-2 production is shown by gelatin substrate gel zymography. The supernatants are mixed with sodium dodecyl sulfate (SDS) sample buffer without reducing agent and then, proteins are separated by SDS-polyacrylamide gel electrophoresis in 7.5% polyacrylamide gels containing gelatin at 1 mg/ml, as previously described by Heussen and Dowdle(1980 Ann. Biochem. 102: 196-202) and adjusted for minigel format. After electrophoresis, SDS is removed from the gels by an incubation in 2.5% Triton X-100 for half an hour at room temperature. The gels are then incubated at 37° C. in a buffer containing 50 mM/L Tris-HCl 5 mM/L CaCl2, pH 7.6 for 24 hours. The gels were stained with Coomassie blue R250 (0.25%). […] The intensity of the gelatinolytic bands is analysed by densitometry. No interference between bisphosphonates and gelatin substrate gel zymography is observed using this assay (data not shown).
# LP-1 cells = assay: Analysis of cell cycle, propidium iodide flow cytometry; type: cell-based, human; settings: LP-1, 5×10^−4 Mol/L, 4 day incubation; control 36%
# Experimental: LP-1 cells (2×10^5 cells) plated in a 24 well-plate are incubated in the presence of 5×10^−4 Mol/L of either pamidronate or zoledronate. A control without bisphosphonate is performed. Cells are recovered after a 4day incubation period and washed. They are then incubated for 40 minutes at 37° C. with a solution of Triton×100 0.1%, Sodium Citrate 0.1%, 5 IU of RNAse and stained with propidium iodide (PI) 50 mg/L: Flow cytometry analysis is performed on a FACSCalibur using a CELLQuest program (Becton Dickinson). Data are gated on the F12-Area venus FL2-Width cytogram to exclude doublets and agregates, and a minimum of 2.5×10^4 gated cells is collected per sample. Analysis of the cell cycle was performed using the Modfit LT for Mac V2.01 program (Verity Software House, Inc). Apoptotic cells were detected as a subdiploid peak as described by Zamai et al. (1993, Cytometry 14: 891-897)
smiles,measurement,setting,value
"NCCCC(O)(P(=O)(O)O)P(=O)(O)O [alendronate, 4-amino-1-hydroxybutane-1,1-diphosphonic acid]",production and secretion of MMP-2 by PC-3 ML cells,[1],"independently reduced, in part"
same,establishment of bone metastases,[2],partially blocked
"CCCCCN(C)CCC(O)(P(=O)(O)O)P(=O)(O)O [ibandronate, 1-hydroxy-3-(methylpentylamino)-propylidene-bisphosphonic acid]",osteolytic lesions in bone (radiographs),[3],markedly decreased
"NCCC(O)(P(=O)(O)O)P(=O)(O)O [pamidronate, (3-amino-1-hydroxypropylidene) bis-phosphonate]","percentage of proliferation, of that of the control","[4]; 5×10^−4 Mol/L, the three cell lines, 3 days",25%
same,inhibition at 500 µM,"[4]; 5×10^−4 Mol/L, 3 days",75%
same,concentration up to which dose-dependent inhibition of proliferation is observed,[4]; except for JJN-3,5e-05 mol/L
same,IC50,"JJN-3; Homo sapiens, JJN-3, 72 h, 3 days",107 µM
same,concentration at which proliferation returns to the level of the control,JJN-3,1e-05 mol/L
same,IC50,LP-1,207 µM
same,IC50,OPM-2,293 µM
same,APO 2.7 stained (apoptotic) BMSC,BMSC,97%
same,concentration at which IL-6 production returns to the basal level,[5]; BMSC,10^−11 mol/L
same,inhibition of IL-6 production by BMSC,"[5]; not proportional to dose, six BMSC samples, p=0.05",40%±14%
same,inhibition of MMP-1 secretion by BMSC,[6],21%±20%
same,"MMP-2 upregulation (72 kDa gelatinase activity, densitometry)",MMP-2 secretion by BMSC; 10^−6 mol/L,165%±27%
CC(=O)O[C@H]1C(=O)[C@@]2(C)[C@H]([C@H](OC(=O)c3ccccc3)[C@]3(O)C[C@H](OC(=O)[C@H](O)[C@@H](NC(=O)c4ccccc4)c4ccccc4)C(C)=C1C3(C)C)[C@]1(OC(C)=O)CO[C@@H]1C[C@@H]2O [taxol],production and secretion of MMP-2 by PC-3 ML cells,[1],"independently reduced, in part"
"O=P(O)(O)C(O)(Cn1ccnc1)P(=O)(O)O [zoledronate, (1-hydroxy-2-(1H-imidazole-1-yl)ethylidene) bisphosphonate]",inhibition at 500 µM,"[4]; 5×10^−4 Mol/L, 3 days",~95%
same,concentration at which proliferation returns to the level of the control,JJN-3,1e-05 mol/L
same,IC50,LP-1,193 µM
same,concentration at which normal proliferation rate is recovered,LP-1; LP-1,5e-05 mol/L
same,IC50,OPM-2,155 µM
same,concentration at which normal proliferation rate is recovered,OPM-2; OPM-2,5e-05 mol/L
same,percentage of cells in S phase,LP-1 cells,60%
same,APO 2.7 stained (apoptotic) BMSC,BMSC,24%
same,concentration at which IL-6 production returns to the basal level,[5]; BMSC,10^−9 mol/L
same,inhibition at 1 µM,"[5]; Homo sapiens, BMSC, 10^−6 mol/L, p=0.05, read-out: maximum inhibition of IL-6 production by BMSC",60%
same,inhibition of MMP-1 secretion by BMSC,[6],44%±14%
same,"MMP-2 upregulation (72 kDa gelatinase activity, densitometry)",MMP-2 secretion by BMSC; 10^−6 mol/L,180%±12% and 205%±7%
same,"MMP-2 upregulation (72 kDa gelatinase activity, densitometry)",MMP-2 secretion by BMSC; 10^−9 mol/L,159%±16%
